From ChEMBL document CHEMBL1138299, “Synthesis and antitumor activity of amine analogs of irofulven” (Bioorg Med Chem Lett, 2007)

Test: Antitumor activity in MV522 cells assessed as inhibition of DNA synthesis after 2 hrs
Type: functional, cell-based
Details: Homo sapiens, MV522, 2 h

Row | SMILES | IC50
1 | CC1=C(C=O)C2=C(C)C3(CC3)[C@@](C)(O)C(=O)C2=C1 | 4900 nM
2 | CC1=C(CO)C2=C(C)C3(CC3)[C@@](C)(O)C(=O)C2=C1 [IROFULVEN] | 110 nM
